The test system of test [1] is T98G human glioblastoma cell line. Put plainly: Antiproliferative assay (MTS), GI50 in T98G cells. The test is classed as cell-based. The source says:
General methods are known for determining the effect of compounds on proliferation of cells. See, e.g., Zhu et al., J. Med. Chem., 2006, 49, 2063-2076. Cells can be selected by one of skill in the art and can be maintained as exponentially growing cultures in a suitable medium (e.g., RPMI 1640 medium) with adjuvents, including FBS, penicillin, and glutamine, provided at levels known to those skilled in this field. For human cancer cells, e.g., human glioblastoma cell line T98G, the cells can be trypsinized and washed prior to formation of a cell suspension in appropriate buffer and plating of the cell suspension. Typical microtiter plate amounts can be 500-2000 cells/well. The cells can be allowed to attach and grow for a defined time period (e.g., 36 hours, 72 hours, 96 hours, or other defined period) before treatment with either vehicle (e.g., dimethylsulfoxide) or test agent (e.g., compound of the invention) followed by an additional defined time period (e.g., 36 hrs, 72 hrs, 96 hrs, and the like). At the end of the additional defined time period, viability of the cells can be determined by any of a variety of methods known in the art, including assays employing MTS (3-(4,5-dimethylthiazol-2-yl)-5-(3-carboxymethoxyphenyl)-2-(4-sulfophenyl)-2H-tetrazolium), as described by -Cory et al., Cancer Commun., 1991, 3, 207-212. […] Replicates are typically assayed to allow determination of appropriate statistical properties as known in the art.
Compounds of the invention with structures of Formulae Xa, XVb, and XVa were assayed for inhibition of growth of the T98G human glioblastoma cell line (Table II).
Human glioblastoma T98G cells (American Type Culture Collection, Manassas, Va.) were maintained as exponentially growing cultures in an RPMI 1640 medium with 10% FBS, 1% penicillin and 1% glutamine. The cells were seeded into 96-well plates and allowed to attach and grow for 48 hours. One plate of cells was used for a time zero cell number determination (N=16), and cells in other plates were treated for 72 hours or 96 hours with either DMSO (1% v/v; N=8 for each plate) or a range of concentrations, in quadruplicate, of test agents. Cell number was determined spectrophotometrically at 490 nm minus absorbance at 630 nm after exposure to 3-(4,5-dimethylthiazol-2-yl)-5-(3-carboxymethoxyphenyl)-2-(4-sulfophenyl)-2H-tetrazolium (MTS) and N-methylphenazine methylsulfate. The fifty percent growth inhibitory concentrations (GI50) of test agents were calculated from the spectrophotometrically determined growth of the control cells over the 72- or 96-hour period.

Test [2] concerns bovine brain tubulin. Put plainly: Inhibition of GTP-induced tubulin assembly (turbidimetry at 350 nm). The test is classed as biochemical. To be noted: after 20 min at 30° C., 10 μM bovine brain tubulin, 0.8 M monosodium glutamate. Here is the method:
Bovine brain tubulin was isolated to electrophoretic homogeneity from fresh brains via methodology described by Hamel and Lin, Biochemistry 23: 4173-84 (1984). Tubulin (final concentration 10 μM; 1 mg/mL) was preincubated with test agents dissolved in DMSO (4% v/v final concentration) and monosodium glutamate (0.8 M final concentration, pH 6.6) for 15 minutes at 30° C. The reaction mixture was cooled to 0° C., and GTP (0.4 mM final concentration) was added. Reaction mixtures were transferred to cuvettes held at 2.5° C. in a Beckmann DU 7400 multichannel, temperature-controlled (Peltier unit) spectrophotometer, reading absorbance (turbidity) at 350 nm in each cuvette every 15 seconds. Baselines were established and temperature was quickly raised to 30° C. (in approximately 1 minute). After 20 minutes, the temperature was returned to 2.5° C. The turbidity value after 20 minutes at 30° C. for GTP alone was assigned as 100% assembly, and for DMSO alone as 0% assembly. The IC50 was calculated by linear regression of the percent assembly values at the same time point obtained with 0.625, 1.25, 2.5, 5, 10 and 20 μM test agent. In experiments to test for disassembly of preformed tubulin polymer, the test agent was added after 7 minutes of GTP-induced assembly.

Test [3] relates to bovine brain tubulin (vinca domain). Kind of test: Inhibition of [3H]vinblastine binding to tubulin (centrifugal gel filtration). As to conditions: 10 μM radiotracer, 10 μM tubulin; for % Inhibition of [3H]vinblastine binding by 5 μM test agent: 30 min room temperature; for IC50: test agent 0.5-100 μM, Hill fit. The protocol:
(§1) The new compounds were tested for their abilities to bind at the vinca domain and at the related peptide/depsipeptide site on tubulin using a modification of a centrifugal gel filtration method described by Bai et al., Mol. Pharmacol. 7: 965-76 (1995). In the initial screens, each 0.32 mL reaction mixture contained 5 μM test agent and 10 μM [^3H]vinblastine (specific activity 8.50 Ci/mmol; GE Healthcare Bio-Sciences, Picataway, N.J.) or 10 μM [^3H]dolastatin 10 (specific activity 1.96 Ci/mmol; obtained from the Drug Synthesis and Chemistry Branch of the National Cancer Institute) predissolved in DMSO (final concentration 1% v/v) and 10 μM bovine brain tubulin, all in 0.1 M 2-(4-morpholino)ethanesulfonic acid (Mes), pH 6.9, containing 0.5 mM MgCl2. The mixture was incubated for 30 min at room temperature. Two 0.15 mL aliquots of the reaction mixture were applied to duplicate 2 mL beds of pre-swollen (in Mes, pH 6.9, containing 0.5 mM MgCl2) Sephadex G-50 (superfine) contained in Handee columns (Pierce Biotechnology, Rockford, Ill.). The columns were centrifuged at 800×g for 4 minutes and the protein concentration in the effluent was determined, using the bicinchoninic acid assay. The amount of radiolabeled ligand bound to tubulin was determined using scintillation spectrometry. Each value represents the mean ±SD of four determinations. […] Inhibition was calculated as the percent difference relative to that of the control incubation with DMSO (i.e., without test agent—assigned as 0% inhibition). […] GraphPad Prism was used to fit the resulting data to the Hill equation to determine the IC50 values.

The subject of test [4] is HeLa human cervical carcinoma cells. Put plainly: High-content analysis of mitotic arrest in HeLa cells. Type of test: cell-based. To be noted: for Microtubule Density MDEC (minimum detectable effective concentration) / Mitotic Index MDEC (percentage of phosphohistone H3-positive cells) / Nuclear Condensation MDEC (minimum detectable effective concentration) / EC50: 20 hours treatment, average of four experiments ± SD; for EC50: Homo sapiens, read-out: Cell Density EC50; for activity in high-content analysis of mitotic arrest (in words): all endpoints measured. The protocol: The effects of tubulysin analogs on mitotic arrest and cellular microtubules were studied. HeLa human cervical carcinoma cells (10,000 per well) were plated in collagen-1 coated 384-well microplates and were treated with vehicle (DMSO) or ten two-fold concentration gradients of test agents within 4-6 hours of seeding. Cells were incubated for 20 hours at 37° C., fixed with formaldehyde, and labeled with 10 μg/mL Hoechst 33342 in Hank's balanced salt solution (HBSS). Cells were permeabilized with 0.5% (w/w) Triton X-100 for 5 min at room temperature and incubated with a primary antibody cocktail consisting of an HBSS solution containing rabbit polyclonal anti-phosphohistone H3 (Ser10, 1:500, Upstate), and mouse monoclonal anti-α-tubulin (1:3000, Sigma), followed by a mixture of FITC-labeled donkey anti-mouse IgG (1:500) and Cy3-labeled donkey anti-rabbit IgG (1:500). Cells were rinsed once with HBSS and stored at 4° C. in HBSS until analysis.
Microplates were analyzed with an ArrayScanII instrument (Cellomics, Pittsburgh, Pa.) using the Target Activation Bioapplication (Cellomics, Inc.). Within the application, 1,000 individual cells in each well were imaged at three different wavelengths, using an Omega XF93 filter set at excitation/emission wavelengths of 350/461 nm (Hoechst), 494/519 nm (FITC), and 556/573 nm (Cy3). The following parameters were used for data analysis: average nuclear intensity, nuclei per field, average nuclear FITC intensity, and average nuclear Cy3 intensity. A nuclear mask was generated from Hoechst 33342-stained nuclei. Microtubule density and histone H3 phosphorylation were measured in the FITC and Cy3 channel, respectively. Microtubule density was defined as the average green (FITC) pixel intensity in an area defined by the nuclear mask. For determination of mitotic index and nuclear condensation, thresholds for Hoechst 33342 and phosphohistone-H3 intensities were defined as the average Hoechst 33342 or Cy3 intensity plus one standard deviation from twenty-eight vehicle-treated wells placed in the center of the microplate.
Cells were classified as positive if their average Hoechst 33342 or Cy3 intensity exceeded this threshold. To illustrate visually the effects of test agents on cellular microtubules and mitotic arrest, the identical 384-well plates then were used to acquire higher resolution images of selected wells.
Asynchronously growing HeLa cells were treated for 20 hours with each compound in collagen-coated 384 well microplates, fixed, and incubated with primary antibodies for tubulin and the mitotic marker protein phosphohistone H3, followed by FITC and Cy3-conjugated secondary antibodies, respectively. Cells were detected by nuclear counterstaining with Hoechst 33342, which also provided information about chromatin condensation and cell density as markers of cell death.

The subject of test [5] is bovine brain tubulin (peptide/depsipeptide site). Put plainly: Inhibition of [3H]dolastatin 10 binding to tubulin (centrifugal gel filtration). To be noted: 10 μM radiotracer, 10 μM tubulin; for % Inhibition of [3H]dolastatin 10 binding by 5 μM test agent: 30 min room temperature. Here is the method: as §1
In test [6] the test system is bovine brain tubulin (vinca domain). Kind of test: Inhibition of [3H]vinblastine binding to tubulin (centrifugal gel filtration). As to conditions: 50 μM test agent.
Where [7] appears, read: Homo sapiens, T98G, 72 h (value in parentheses), ±SD, n = 4, Table IV, read-out: GI50 at (72 h) in T98 glioblastoma cells.
Setting [8] is: Homo sapiens, T98G, 96 h, ±SD, n = 4, Table IV, read-out: GI50 at 96 h in T98 glioblastoma cells.

Read-outs that look alike come from different tables or passages of the source.

Take `CC[C@H](C)[C@@H]([C@@H](CC(=O)N1CCC[C@H]1[C@H](OC)[C@@H](C)C(=O)N[C@@H](Cc1ccccc1)c1nccs1)OC)N(C)C(=O)[C@@H](NC(=O)[C@H](C(C)C)N(C)C)C(C)C` [dolastatin 10, reference compound]: the GI50 is 0.1 nM in test [1] (72 h (value in parentheses), ±SD, n = 4, Table IV, read-out: GI50 at (72 h) in T98 glioblastoma cells) and 0.056 ± 0.025 nM in test [1] (96 h, ±SD, n = 4, Table IV, read-out: GI50 at 96 h in T98 glioblastoma cells). Further, the IC50 in test [2] is 1400 nM; in test [3], 4600 ± 500 nM. Further, the “% Inhibition of [3H]vinblastine binding by 5 μM test agent” value in test [3] stood at 61 ± 1%.

On to `CC(=O)O[C@H]1C(=O)[C@@]2(C)[C@H]([C@H](OC(=O)c3ccccc3)[C@]3(O)C[C@H](OC(=O)[C@H](O)[C@@H](NC(=O)c4ccccc4)c4ccccc4)C(C)=C1C3(C)C)[C@]1(OC(C)=O)CO[C@@H]1C[C@@H]2O` [paclitaxel, reference compound], for which the concentration for 50% growth inhibition (GI50) in test [1] (setting [7]) stood at 24 nM. In test [1] (setting [8]), the GI50 was 12 ± 7 nM. In addition, the 50% growth inhibitory concentration (GI50) in test [1] (Homo sapiens, T98G cells, 72 h exposure, Table II, read-out: GI50 in T98G cell, 72 h) amounted to 24 ± 9 nM. For the same molecule, in test [1] (Homo sapiens, T98G cells, 96 h exposure, Table II, read-out: GI50 in T98G cell, 96 h), the concentration for 50% growth inhibition (GI50) was 12 ± 7 nM. In addition, the GI50 in test [1] (Homo sapiens, T98G cells, after 72 hrs exposure, read-out: GI50) is approximately 24 nM. In test [4], the “Microtubule Density MDEC (minimum detectable effective concentration)” value was 7.0 ± 2.9 nM, the “Mitotic Index MDEC (percentage of phosphohistone H3-positive cells)” value was 4.2 ± 3.6 nM, the “Nuclear Condensation MDEC (minimum detectable effective concentration)” value came out at 10.2 ± 8.2 nM and the 50% effective concentration (EC50) amounted to 11.3 ± 2.7 nM. For the same molecule, the “activity in high-content analysis of mitotic arrest (in words)” value in test [4] is on record as “nanomolar activity”.

Take `CC[C@]1(O)C[C@@H]2CN(CCc3c([nH]c4ccccc34)[C@@](C(=O)OC)(c3cc4c(cc3OC)N(C)[C@H]3[C@@](O)(C(=O)OC)[C@H](OC(C)=O)[C@]5(CC)C=CCN6CC[C@]43[C@@H]65)C2)C1` [vinblastine, reference compound]: the 50% growth inhibitory concentration (GI50) in test [1] (setting [7]) came out at 8.6 nM; in test [1] (setting [8]) it was 1 ± 0.6 nM. It took 1600 nM to reach half-maximal inhibition in test [2] (IC50). For the same molecule, the “% Inhibition of [3H]dolastatin 10 binding by 5 μM test agent” value in test [5] was determined as 5 ± 6%.

As to `CC[C@]1(O)C[C@H]2CN(CCc3c([nH]c4ccccc34)[C@@](C(=O)OC)(c3cc4c(cc3OC)N(C=O)[C@H]3[C@@](O)(C(=O)OC)[C@H](OC(C)=O)[C@]5(CC)C=CCN6CC[C@]43[C@@H]65)C2)C1` [vincristine, reference compound], in test [4], the “Microtubule Density MDEC (minimum detectable effective concentration)” value came to 10.5 ± 10.1 nM, the “Mitotic Index MDEC (percentage of phosphohistone H3-positive cells)” value is 4.1 ± 1.9 nM, the “Nuclear Condensation MDEC (minimum detectable effective concentration)” value is given as 2.6 ± 2.0 nM and the EC50 worked out at 19.7 ± 10.7 nM. Moreover, the “activity in high-content analysis of mitotic arrest (in words)” value in test [4] is listed as “nanomolar activity”. Moreover, in test [3], the “% Inhibition of [3H]vinblastine binding by 5 μM test agent” value was determined as 65 ± 2% and the IC50 was found to be 4400 ± 700 nM. Besides, the “% Inhibition of [3H]dolastatin 10 binding by 5 μM test agent” value in test [5] was 21 ± 5%. The same molecule yielded a half-inhibitory concentration (IC50) in test [5] (test agent 0.5-100 μM, Hill fit) of 29000 ± 5000 nM. Moreover, the “% Inhibition of [3H]vinblastine binding @50 μM” value in test [6] is on record as “(@50 μM: 98 ± 1%)”.

These data come from patent publication US20100047841A1, “SYNTHESIS OF DESACETOXYTUBULYSIN H AND ANALOGS THEREOF” (University of Pittsburgh-of the Commonwealth System of …, priority 2007, published 2010).
